Data as given in article PMC7970798 (Computational and Structural Biotechnology Journal, 2021).
No end group written: not given here.

Biological target: PALS1 F318W (Homo sapiens, UniProt Q8N3R9, F318W)
Experiment: biochemical
Type: binding

PALS1 F318W, sequence (Q8N3R9 256-336 F318W limits assumed): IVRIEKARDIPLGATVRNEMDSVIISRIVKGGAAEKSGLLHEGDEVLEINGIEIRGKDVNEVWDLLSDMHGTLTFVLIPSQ

## VKNLNSSRVPDLLV [SARS-CoV-2, VKNLNSSRVPDLLV]
  Kd: 29 ± 4 µM
